The text below walks through data of patent publication US20240100027A1, “INHIBITION OF PROSTAGLANDIN DEGRADING ENZYME 15-PGDH TO IMPROVE JOINT STRUCTURE AND FUNCTION” (The Board of Trustees of the Leland Stanford Junior …, priority 2020, published 2024).

Experiment [1] relates to cartilage from aged mice. The experiment is described as follows: RNA-seq, differential gene expression and Ingenuity Pathway Analysis of cartilage from aged mice treated systemically. The class given is in vivo.
Description: Mice handling. […] Aged (24-28 mo.) mice C57BL/6 were obtained from the US National Institute on Aging (NIA) aged colony.
RNA extraction and library preparation from mouse joints for RNA seq. Knee joint microdissection was performed under a stereoscope to collect cartilage tissue by carefully eliminating any tendons, synovial membrane and meniscal residue and then shaving the cartilage tissue from the underlying bone (Smeriglio et al., 2020, Sci Transl. Med. 12:eaax2332). The isolated cartilage tissue was kept in RNA later (Ambion) and stored at −80° C. for later use. Cartilage tissue was homogenized in Trizol using a bullet blender (Next Advance), followed by RNA extraction and purification using RNeasy micro-kit (Qiagen). cDNA libraries were constructed from 10 ng total RNA using SMARTer stranded Total RNA-Seq kit v3 (Takara Bio). Libraries were sequenced to 25-30×10^6 150-bp paired end reads per sample on an Illumina NovaSeq platform (Novogene, CA).
Differential Gene Expression Analysis. For the RNA-seq analysis, pseudo aligner Salmon was used to quantify the expression of transcripts. Sequences were also aligned against the Mus musculus genome (mm9) using the STAR aligner. A counts matrix containing the number of counts for each gene and each sample was obtained. This matrix was analyzed by DESeq2 to calculate statistical analysis of significance of genes between samples. […] Functional analysis of differentially expressed genes was analyzed using Ingenuity Pathway Analysis (IPA) and DAVID bioinformatic tools.
To identify the downstream molecular pathways through which 15-PGDH may exert its effect on aged cartilage, transcriptomic analysis of vehicle and SW treated cartilage from aged mice (24 mo) was performed and compared to cartilage from young adult mice (3 mo) through RNA-seq.
The subject of experiment [2] is human OA cartilage explants. The experiment is described as follows: Human OA cartilage explants: Luminex cytokine panel on culture medium. Format: cell-based. The settings on record: culture medium (secretome) of SW treated explants vs vehicle. An excerpt: Human cartilage tissue collection and treatment. Human cartilage samples were harvested from the surgical knee tissue discards of patients (n>5, age ranging from 55-75 years) undergoing total knee arthroplasty according to approved human subjects institutional review board protocols at Stanford University. Informed, written consent was given by the patients prior to the study. Cylindrical explants (4 mm diameter, 2-4 mm thickness) were extracted from the cartilage samples using standard biopsy punches (Integra, NJ. USA). Cartilage explants were cultured in DMEM-F12 medium supplemented with 10% fetal bovine serum (FBS), 25 μg mL^−1 ascorbic acid, 1× glutamine, and 1× antibiotic-antimycotic solution prior to experiments. To assess the effect of 15-PGDH inhibition, explants were treated with Vehicle (DMSO) or SW (10 uM) for 1 week prior to the assessment. Fresh media was added to the explants every other day.
(§1) Luminex Assay. This assay was performed at the Human Immune Monitoring Center at Stanford University. Human 76-plex or mouse 48-plex kits (eBioscience/Affymetrix) were used according to the manufacturer's recommendations. Briefly, antibody beads and samples were added to a 96-well plate and incubated at room temperature for 2 hours, followed by overnight incubation at 4° C. with shaking at 500 to 600 rpm. Plates were then washed in a w ash buffer, and biotinylated detection antibody was added for 2 hours at room temperature with shaking. Plate was washed, and streptavidin-phycoerythrin was added After 40 min incubation and washes, reading buffer was added to the wells Plates were read using a Luminex 200 instrument with a lower bound of 50 beads per sample per cytokine. Custom assay control beads were added to all wells. The raw MFI read-outs of all samples were used and analyzed by GraphPad prism.
Next, the effects of 15-PGDH inhibition in human OA cartilage were tested. […] Sulphated glycosaminoglycans (sGAG) were also independently quantified through measurements with the DMMB dye. […]

Experiment [3] concerns inflammatory cytokine levels. The experiment is described as follows: Luminex cytokine panel on serum of OA mice given intra-articular injections. The class given is in vivo. The settings on record: vs vehicle.
From the text: Tibia loading to induce osteoarthritis in young mice. Briefly, mice were anesthetized using 2.5% isoflurane inhalation under 4 L/min of oxygen. The right tibia was positioned vertically, with the ankle upward and the knee downward in deep flexion between loading cups. Using a material testing machine (Instron ElectroPulse E1000), axial compression was applied through the knee via the upper cup, while the lower cup was fixed and linked to the load cell. The ACL tear was confirmed by the release of compressive force during compression. Mice were allowed to progress for 6 weeks after loading (n=8 for each group). Contralateral left limb served as a non-loaded control. Mice blood serum was collected via retro-orbital bleeding to do multiplex autoantibody assay. Mice were sacrificed by cervical dislocation and knee joint were collected for assessment.
as §1
To test whether 15-PGDH inhibition would be protective in younger, adult mice upon induction of OA, OA was induced in young, adult mice (3 months old) by application of tibial compression on the mouse knee leading to anterior crucial ligament (ACL) rupture. This injury model recapitulates ACL injury frequently observed in human patients. After 1 week of injury, local intra-articular injections of vehicle or SW were given twice a week for 4 weeks. […] Upon blinded scoring of mice knee joints based on the OARSI scoring system, it was observed that the maximal damage score. […] To assess the inflammation in these mice, serum was utilized from vehicle or SW injected mice to test for a 39-plex Luminex cytokine panel. […] These observations corroborated that local 15-PGDH inhibition by SW treatment not only enhances cartilage regeneration but also decreases the inflammation in osteoarthritic mice.

The subject of experiment [4] is chondrocytes in articular cartilage. The experiment is described as follows: Transmission electron microscopy of chondrocytes in articular cartilage, mitochondria per cell. The class given is in vivo, mice. On the procedure: Transmission electron microscopy (TEM). Knee joints were fixed in Karnovsky's fixative composed of 2% Glutaraldehyde (EMS Cat #16000) and 4% paraformaldehyde (EMS Cat #15700) in 0.1M Sodium Cacodylate (EMS Cat #12300) pH 7.4 for 4 hours at 4° C. Joints were washed with cold PBS 3× and then decalcified in 14% EDTA solution in PBS for 3 days at 4° C. Samples were washed with PBS and placed in cold/aqueous 1% osmium tetroxide (EMS Cat #19100) on a rotator and allowed to warm to room temperature (RT) for 1 hr. Samples were washed 3× with ultrafiltered water followed by staining in 1% uranyl acetate at RT for 2 hours. Samples were then dehydrated in a series of ethanol washes for 30 minutes each at RT beginning at 50%, 70% and finally moved to 4° C. overnight. They were placed in cold 95% EtOH and allowed to warm to RT, changed to 100% 2×, then Propylene Oxide (PO) for 15 min. Samples were infiltrated with EMbed-812 resin (EMS Cat #14120) mixed 1:2, 1:1, and 2:1 with PO for 2 hrs each with leaving samples in 2:1 resin to PO overnight rotating at RT in the hood. The samples were then placed into EMbed-812 for 2 to 4 hours then placed into molds w/labels and fresh resin, orientated and placed into 65° C. oven overnight. […]

The mark [5] stands for this setting: SW treated aged cartilage, almost to the levels of young cartilage.
Where [6] appears, read: aged cartilage, SW vs vehicle, among 301 DEGs.

Molecules are shown by their SMILES.

Take `CCCC[S+]([O-])c1sc2nc(-c3cccs3)cc(-c3ccccc3)c2c1N` (centres unmarked) [SW033291, 2-(butylsulfinyl)-4-phenyl-6-(thiophen-2-yl)thieno[2,3-b]pyridin-3-amine]: the “genes involved in mitochondrial function and metabolism (IPA)” value in experiment [1] (SW treated aged cartilage) is listed as “significant upregulation”. In addition, in experiment [1] (setting [5]), the COX5a expression result is “significantly upregulated” and the Ndufa9 expression entry was “significantly upregulated”. In experiment [1] (setting [6]), the “number of downregulated differentially expressed genes” value came out at 154 and the “number of upregulated differentially expressed genes” value stood at 147. Besides, in experiment [2], the CCL5 level result is listed as “significant reduction”, the GMCSF level result is reported as “significant reduction” and the IL6 level entry is “significant reduction”. In experiment [3], the CCL4 level entry was “significant downregulation”, the CCL7 level result is “significant downregulation”, the CXCL10 level entry was “significant downregulation” and the IL2 level result was “significant downregulation”. For the same compound, in experiment [3], the IL27 level result is recorded as “significant downregulation”, the VEGF level entry is “significant downregulation” and the inflammatory cytokine levels result is recorded as “overall reduction”. Moreover, the “number of mitochondria per cell (TEM images)” value in experiment [4] (aged cartilage, SW treated vs vehicle treated) is recorded as “significant increase”. In experiment [4] (aged chondrocytes, SW treatment, compared with young cartilage), the “mitochondria per cell, quantification with Image J” value is given as “restoring the mitochondria number in aged chondrocytes to the level of young cartilage”.
